According to patent US10130590B2, “Methods of treating cancer with atovaquone-related compounds” (DANA-FARBER CANCER INSTITUTE, INC., priority 2013, dated 2018):

Columns and labels:
NF-κB = NF-κB cell-based reporter system
Experimental: To determine if atovaquone inhibits STAT3, it was tested in a cell-based reporter system of STAT3 transcriptional activity (Nelson E A, et al. (2008) Nifuroxazide inhibits survival of multiple myeloma cells by directly inhibiting STAT3. Blood 112(13):5095-5102). These cells lack basal STAT3 activation; upon IL-6 treatment, STAT3 becomes activated and drives transcription of a STAT3-dependent luciferase reporter gene. The STAT3-luc reporter cells were pre-treated with drug for 1 hour, then stimulated with IL-6 (10 ng/ml) for 5 hr. Activity of firefly luciferase was measured and normalized by cell viability (Cell Titer Glo). […] To determine if atovaquone inhibits STAT3 activity specifically over other transcription factors, it was tested in cell-based reporter systems for STAT1 and STAT5, two other STAT family members, and NF-κB, an unrelated transcription factor.

[1] = test system: INA-6, U266 and HEL cells; test: Annexin V/PI flow cytometry in STAT3-dependent cancer cells; format: cell-based; details: INA-6 15 μM 24 hours; U266 and HEL 20 μM 48 hours
Experimental: (§1) Annexin V/PI staining was performed using Annexin V:FITC Apoptosis Detection Kit I (BD Biosciences). Staining for cell cycle analysis was performed as previously described (267). Staining for cell-surface receptors was performed in 50 μl PBS+2% FBS with 2 μl antibody to IL6R (BioLegend #352803) or 5 μl antibody to gp130 (BD Biosciences #555757) for 20 minutes on ice in the dark. Cells were washed twice, then resuspended in 300 μl of the same buffer. Samples were analyzed on a BD FACSCanto II machine. Transfection and siRNA Cells were reverse-transfected using Lipofectamine RNAiMAX (Invitrogen); the culture medium was changed 24 hours later. Control siRNA (D-001210-02) and REDD1 siRNA (M-010855-01) were from Thermo Scientific Dharmacon.
Next, the effect of atovaquone on the growth and survival of STAT3-dependent cancer cells was examined Survival of the multiple myeloma cell line INA-6 is exquisitely dependent on IL-6 added to culture medium and resultant STAT3 activation. […] The other cell lines with constitutively-active STAT3, U266 and HEL, were also killed by atovaquone.

HEL cells = test: PI cell cycle analysis, HEL; format: cell-based; details: 25 μM, 24 hours
Experimental: as §1, with “Dharmacon. Additionally, it was hypothesized atovaquone inhibits proliferation by disrupting cell cycle progression. […] In summary, atovaquone inhibits constitutive STAT3 activation and target gene expression in cancer cells, and reduces their survival and proliferation.” for “Dharmacon.”

K562 and AML2 cells = test: Annexin V/PI and cell cycle analysis, K562 and AML2; format: cell-based; details: K562 20 μM, AML2 15 μM, 48 hours
Experimental: as §1
K562 and AML2 cells treated with atovaquone (20 and 15 μM, respectively) for 48 hours. […] Therefore, it was hypothesized that atovaquone kills cancer cells through STAT3-related and STAT3-independent mechanisms. Accordingly, the hypothesis that atovaquone inhibited another common pathway in cancer pathogenesis was considered. In particular, the mTOR pathway, which is known to be involved in cancer cell growth and survival, was investigated.

[2] = test system: acute myeloid leukemia (AML); test: Retrospective analysis of atovaquone exposure in AML patients after HSCT; format: in vivo, human
Experimental: Atovaquone start and end dates for approximately 500 AML patients who underwent HSCT at Dana-Farber Cancer Institute from 2006-2012 were obtained by chart review of the electronic medical record with DFCI IRB approval. Atovaquone was administered as a suspension, 750 mg twice daily. Due to the intermittent atovaquone dosing for some patients, a discontinuation for longer than 50 days disqualified subsequent atovaquone treatment from counting toward a patient's total atovaquone exposure. Patients who received more than one HSCT were excluded (4% of total patients).
(§2) The patient population consisted of AML patients treated with HSCT at the Dana-Farber Cancer Institute and who survived at least 150 days after transplant without relapse. Patients treated with atovaquone for at least 100 days within the 150-day period were classified as “high atovaquone” exposure, while the remaining patients were classified as “low atovaquone” exposure. […] To further investigate the anti-cancer activity of atovaquone in patients, serum samples were collected from patients approximately 100 days following HSCT who were being treated with either TMP-SMX or atovaquone. […] Atovaquone is a colored compound, and its presence in patient plasma is visibly noticeable.

U266 cells = test: Viability of U266 cells grown in patient serum; format: cell-based, human; details: serum approximately 100 days following HSCT; compared to serum of patients receiving TMP-SMX; 4 days
Experimental: FIG. 43 contains a dot plot quantifying viability of U266 cancer cells grown for 4 days in serum from patients taking trimethoprim/sulfamethoxazole (TMP/SMX) or atovaquone; the indicated p-value was determined using the two-sample t-test.
as §2

Structure (SMILES): O=C1C(O)=C([C@H]2CC[C@H](c3ccc(Cl)cc3)CC2)C(=O)c2ccccc21 [atovaquone, trans-2-[4-(4-chlorophenyl)cyclohexyl]-3-hydroxy-1,4-naphthalenedione]
- NF-κB transcription factor activity (NF-κB): modestly affected at the higher doses
- apoptosis (annexin V and PI staining) [1]: inducing apoptotic cell death
- population of cells in G2/M (HEL cells): decreased the population of cells in G2/M
- proportion of cells with lower DNA content (HEL cells): increased the proportion of cells with lower DNA content
- mode of loss of viability (K562 and AML2 cells): apoptosis and cell cycle arrest
- relapse-free survival ([2]; "high atovaquone" (at least 100 days within the 150-day period) vs "low atovaquone"): significantly improved relapse-free survival
- overall survival ([2]; "high atovaquone" vs "low atovaquone"): trend toward improved overall survival
- viability of U266 cells in serum from treated patients (U266 cells): reduced the viability of U266 cells
